Reference: a melting point compilation (Tetko et al.; mined from patent text by program, amines drawn as free bases though some values may be those of a salt)
Non-standard residues stand in square brackets, D forms with d. Residues, ends and D or L forms follow the SMILES beside them. ξ: configuration not given here. *: point of attachment. Boc = CC(C)(C)OC(=O)*; ξA = CC(N)C(=O)O

Row | melting point [°C] | Structure (SMILES)
1 | 175 to 176 | O=C(c1cc(O)c(O)c(O)c1)c1csc(-c2ccccc2)n1
2 | 139 to 140 | CCCCCCCCOC(C)c1ccc(-c2ccc(C(=O)O)cc2)cc1 (single isomer, unassigned; (+))
3 | 191 to 192 | O=C(O)c1ccc(NCCCc2ccc(Cl)cc2)cc1
4 | 191 to 193 | O=C(c1ccccc1)c1ccccc1SSc1ccccc1C(=NO)c1ccccc1
5 | 182 to 183 | O=C(CCCN1C(=O)c2ccccc2C1=O)N1CCCC2=C1CCc1cc(Cl)ccc12
6 | 113 to 115 | Nc1c(CC(=O)O)cccc1Oc1cc(Cl)cc(Cl)c1
7 | 151 to 153 | COc1cc(OC)c(C(=O)/C=C/C(=O)O)c(OC)c1
8 | 182 to 183 | COc1cc(NC(=O)OCc2ccccc2)c(Cl)cc1C(=O)O
9 | 122 to 123 | CC(C)(C)NC(=O)[C@@H]1CCCN1C(=O)[C@@H](O)[C@H](Cc1ccccc1)N(Cc1ccccc1)Cc1ccccc1
10 | > 300 | COc1ccc(-c2[nH]nc3c2C(=O)c2c(NC(=O)CN4CCN(CCN)CC4)cccc2-3)cc1
11 | 224 to 227 | COc1ccccc1-c1cc(O)c(-c2ccccc2C(=O)O)nn1
12 | 131 to 132 | Cc1c(CNCC(C)(C)O)n(C)c2c(C)c(NC(=O)c3ccc(OC[C@@H]4CCCO4)cc3F)ccc12
13 | 95 to 97 | O=[N+]([O-])c1cccc2c(NCC34CCCN3CCC4)cccc12
14 | 245 | CCN(CC)c1ccc(C(O)C#Cc2ccc(C(=O)O)c(O)c2)cc1C(C)(C)C (stereo not given)
15 | 220 to 221 | COc1cccc(Cn2nc(C(=O)O)c3c2-c2ccc(OCc4cncnc4)cc2CC3)c1
16 | 153 to 154 | CS(=O)(=O)c1ccc(-c2sc(CCc3ccccc3)nc2-c2ccc(F)cc2)cc1
17 | 316 to 318 | Cn1cc(C2=C(c3c4n(c5ccccc35)C[C@@H]3CN(C=O)C[C@@H]3C4)C(=O)NC2=O)c2ccccc21 (relative stereo)
18 | 102 to 103 | Fc1ccc(C(c2ccc(F)cc2)C2CCN(CCCOc3c(Cl)cccc3Cl)CC2)cc1
19 | 85 to 86 | CC(C)(c1ccccc1)N1CC=C(c2ccccc2)C1=O
20 | 139 to 141 | COc1ccc(N2CCN(c3c(C)c(C)c4c(c3C)C(c3ccc(F)cc3)C(C)(C)O4)CC2)cc1 (stereo not given)
21 | 139 to 140 | CN1Cc2cccnc2N(c2cccc(Cl)c2)C1=O
22 | 166 to 168 | COc1ccc2cc(-c3nn(C)c4cc(OC)ccc34)ccc2c1
23 | 70 | CCOC(C)Oc1cnc(C(C)C)nc1O (stereo not given)
24 | 170 to 174 | CCCN(CCC)C(=O)Cn1c(-c2ccc(Cl)cc2)nc2ccc(Cl)nc21

Row | melting point [°C] | Structure (SMILES)
25 | 93 | CCCn1ncnc1COc1nn2c(-c3ccccc3F)nncc2c1C(C)(C)C
26 | 126 to 127 | CSc1ccc(C(C)C)c(NC(=O)CN2CCN(CCCSc3nc4ccccc4o3)CC2)c1C(C)C
27 | 269 to 271 | CC1CCc2c(Cl)c(Cl)cc3c(=O)c(C(=O)O)cn1c23 (stereo not given)
28 | 180 to 183 | Cn1cc(C(=O)NCc2ccc(Cl)cc2)c(=O)c2cc(CN3CCOCC3)cc(C#CCO)c21
29 | 105 to 107 | Cc1noc(NS(=O)(=O)c2sccc2-c2ccccc2)c1Br
30 | 210 to 211 | NC(=O)CNc1ncccc1NC(=O)c1cccc(Cl)c1
31 | 282 to 284 | CC(=O)Nc1ccc(S(=O)(=O)N2CCN(c3c(F)cc4c(=O)c(C(=O)O)cn(C5CC5)c4c3F)CC2)cc1
32 | 268 to 272 | CC(=O)NCc1c(O)cc2c3c(cccc13)C(=O)N(O)C2=O
33 | 139 | Cn1cnc2cc(C(c3ccccc3)n3ccnc3)ccc21 (stereo not given)
34 | > 260 | O=C(O)c1cnc2cc(O)ccc2c1
35 | 125 to 128 | Cc1c[nH]c(Cc2ccccc2[N+](=O)[O-])n1
36 | 291 to 292 | CCOC(=O)c1cc2c(cn1)[nH]c1c(Br)cc([N+](=O)[O-])cc12
37 | 140 to 142 | CC(C)(C)c1ccc(N2C[C@H](Cn3ccnn3)OC2=O)cc1
38 | 129 to 131 | Cc1c([N+](=O)[O-])c(=O)n(-c2cc(C(=O)OC(C)C)c(Cl)cc2F)c(=O)n1C
39 | 144 to 146 | COc1ccc([C@@H]2CN(C)CC[C@@H]2NC(=S)c2ccc(C)cc2)cc1OC (relative stereo)
40 | 258 to 259 | Cc1c(-c2ccccc2)nc2ccc(NC(=O)c3cc4cc(F)ccc4n3Cc3cccc(F)c3)cn12
41 | 148 to 158 | Cc1cc(C)c(CP(Cc2c(C)cc(C)cc2C)Cc2c(C)cc(C)cc2C)c(C)c1
42 | 40 to 46 | CCN(CC)C(=O)n1cnc(S(=O)(=O)CC2CCCCC2)n1
43 | 87 to 88 | Cc1oc(-c2ccccc2)nc1COc1ccc(COc2nn(Cc3ccccc3)cc2CC(=O)O)cn1
44 | 126 to 136 | COc1cc(C(=O)NS(=O)(=O)c2ccccc2Cl)ccc1Cc1c(Cl)n(C)c2ccc(CC(C)NC(=O)N(C)C)cc12 (stereo not given)
45 | 212 | NC(=O)Cc1ccc([N+](=O)[O-])c(C(=O)c2ccc(Cl)cc2)c1
46 | 246 to 250 | CC(C)N(Cc1ccc2cc(NC(=O)c3ccc(-c4ccc(Cl)cc4)cc3)ccc2c1)C(C)C
47 | 178 to 180 | O=C(Nc1ccc(-n2nc(C(F)(F)F)cc2C(F)(F)F)cc1)C1CCCCC1
48 | 109 to 110 | O=C1c2ccccc2C(=O)N1CCCCCCSc1ccc2ccccc2c1

Row | melting point [°C] | Structure (SMILES)
49 | 153 to 155 | Nc1n[nH]cc1C(=O)c1ccco1
50 | 106 to 107 | COC(=O)C1=CCN=C(c2ccccc2F)c2cc(Cl)ccc21
51 | 129 to 133 | COc1cc2c(c3c1OC(C)(C)C3)C(c1cccc(-c3ccc(NC=O)cc3)c1)=NC(C)(C)C2
52 | 169 | Oc1cccc(-c2ccc(OC[C@H](O)CCc3cccnc3)cc2)c1
53 | 97 to 98 | CCOC(=O)C(=O)CC(=O)C=Cc1ccc(O)c(OC)c1
54 | 212 to 214 | O=S(Cc1ccc(Cl)cc1)C1CCC(C=CC=Cc2ccc(C(F)(F)F)cc2)CC1 (stereo not given)
55 | 118 | COc1ccc(C2(C#N)CCC(=O)CC2)c2nc(C(C)C)oc12
56 | 129 to 131 | CNC(=S)c1c(C(F)(F)F)nc(C(F)F)c(C(=O)OC)c1NC(C)C
57 | 185 to 186 | COC(=O)c1ccc(C)c(-n2c(C)cc(OCc3ccccc3CNC(=O)Nc3cc(C(C)(C)C)nn3-c3ccc(O)c(Cl)c3)c(Cl)c2=O)c1
58 | 138 | CCCOc1cc(C)c2cc(Cn3ccnc3)ccc2n1
59 | 40 | COc1ccccc1N=C(C)CC(=O)C(F)(F)F
60 | 355 to 358 | Cn1nc(-c2cnc3[nH]cc(C(=O)NC4CCOCC4)c3n2)c2ccc(Cl)cc21
61 | 138 to 143 | O=c1[nH]ncc2[nH]c(-c3ccc(OC(F)F)c(OC4CC4)c3)c(-c3ccccc3)c12
62 | 172 to 174 | CCCc1c(OCCCSc2nnc(NC(=O)CC(=O)O)s2)ccc(C(C)=O)c1O
63 | 261 to 263 | CN(C)c1ccc(Nc2ncc(C(=O)O)c(=O)[nH]2)cc1
64 | 122 | Cc1cc2nc(C(C)(C)C(=O)O)cn2nc1OCCCN1CCC(OC(c2ccccc2)c2ccccc2)CC1
65 | 71 to 73 | C=CCC(=NO)C(C)=NNc1c(Cl)cc(C(F)(F)F)cc1Cl
66 | 134 to 135 | O=c1cc(C2(Br)CCCCC2)oc2c(CBr)cccc12
67 | 98 to 100 | COC(=O)CNC(=O)C(C)NC(=O)CNC(=O)OC(C)(C)C (stereo not drawn) (Boc-Gly-[ξA]-Gly-OMe)
68 | 218 to 221 | CC1(C)C(=O)NC(=O)c2cc3nc(-c4ccncc4)[nH]c3cc21
69 | 63 to 67 | CC(=Cc1ccccc1)c1ccc2c(c1)C(C)(C)C(O)C2(C)C (stereo not given)
70 | 220 to 222 | O=C(NCCCCCCNC(=O)c1ccc(O)cc1)c1ccc(O)cc1
71 | 106 to 108 | CCCCCCCCCCC[C@@H]1CC(O)=C(CCCCCC)C(=O)O1
72 | > 260 | O=C1OC(=O)c2ccc3c4cccc5cccc(c6ccc1c2c63)c54

Row | melting point [°C] | Structure (SMILES)
73 | 189 to 191 | Cc1ccc(O)c(-c2nc(N(C)C)sc2C(c2ccc(N(C)C)cc2)c2ccc(N(C)C)cc2)c1
74 | 158 to 159 | C=CC(C)c1cc(C)c2c(c1O)C(N(C)C=O)C1CCCCC21 (stereo not given)
75 | 239 to 241 | COc1cc2c(cc1OC)-c1cc(Nc3ccc(C)cc3C)nc(=O)n1CC2
76 | 55 to 57 | CCOC(=O)c1cnc2ccc(F)cc2c1Cl
77 | 300 to 301 | CC(C)(C)c1ccc(C(=O)Nc2cn3cc(C#N)ccc3n2)cc1
78 | 108 to 110 | CCCC(=O)c1cnc2c(N)cccc2c1Nc1ccccc1C
79 | 111 to 115 | N#Cc1nn(-c2ccc(C=O)cc2)nc1-c1ccccc1
80 | 80 | O=P(O)(O)C1(P(=O)(O)O)CCCN1
81 | 82.5 to 84 | CC(C)N(CCNC(=O)N1CCCC(S(=O)(=O)c2ccccc2)C1)C(C)C (stereo not given)
82 | 230 to 233 | CN(C)c1ccc(-c2n[nH]c(=O)c3cc(N(C)C)ccc23)cc1
83 | 131 to 133 | O=C(CCC(=O)N1CCC[C@H]1C(=O)O)c1ccc(Cl)s1
84 | 116 | CNc1c([N+](=O)[O-])c(Br)nn1Cc1ccccc1
85 | 186 to 187 | CCOc1nc2cccc(C(=O)OC)c2n1Cc1ccc(-c2ccccc2-c2nc(=O)o[nH]2)cc1
86 | 45 | CCCC1(C)CC(=O)c2ccc(OCc3ccccc3)c(C)c2O1 (stereo not given)
87 | 157 | COc1ccc(CN(C)CCCCc2ccc(NC(=O)c3cccc4c(=O)c5cccc(OC)c5[nH]c34)cc2)cc1OC
88 | 142 to 143 | CNCCNC(=O)c1nc(Cl)c(N)nc1N
89 | 132 | CCN(C(=O)C(F)(F)F)c1ccc(C(=O)O)cc1
90 | > 300 | Cc1c[nH]c2c(NC(=O)c3c(Cl)cccc3Cl)cccc2c1=O
91 | 144 to 145 | CCOC(=O)c1cnc(-c2ccc(Cl)cc2)s1
92 | 195 to 196 | CC(C)(C)OC(=O)N1CCCC1c1ccnc(-c2nc(=O)c3ccccc3s2)c1 (stereo not given)
93 | 166 to 167 | CCCCCC(CC(=O)Nc1cc(C(N)=O)ccc1C(C)(C)C)c1cc(OC)c(OC)cc1OC (stereo not given)

Row | Structure (SMILES) | melting point [°C]
94 | CS(=O)(=O)Nc1cccc2c1CCC[C@H]2c1c[nH]cn1 | 118 to 123
95 | CCC(C(C)C)C(CN)CC(=O)O (stereo not given) | 170 to 180
